Experimental data published in article PMC6261661 (ACS chemical neuroscience, 2018).
Where “and” joins values, the source holds several entries; their conditions need not be identical. Equal entries are not always repeated. Entries after “also recorded” stand apart in the source; their conditions may differ. Square brackets hold non-standard residues; d marks the D form. Peptide text beside a SMILES is read from it. Bip = N[C@@H](Cc1ccc(-c2ccccc2)cc1)C(=O)O; dBip = N[C@H](Cc1ccc(-c2ccccc2)cc1)C(=O)O; dPhe(4-I) = N[C@H](Cc1ccc(I)cc1)C(=O)O; Bta = N[C@@H](Cc1csc2ccccc12)C(=O)O; 3Pal = N[C@@H](Cc1cccnc1)C(=O)O; 2Thi = N[C@@H](Cc1cccs1)C(=O)O

Experiments:
Assay type in all cases: cell-based
mMC5R = mMC5R (Mus musculus, UniProt P41149); assay: CRE/β-galactosidase reporter gene bioassay, agonist activity at mMC5R; settings: for mMC5R pharmacology in words: comparisons are to reference peptide 1; for mMC5R Fold Diff.: fold difference in EC50 vs peptide 1, negative prefix = more potent than 1; for mMC5R fold less potent than peptide 1: less potent than 1
Sequence of mMC5R (P41149 whole entry): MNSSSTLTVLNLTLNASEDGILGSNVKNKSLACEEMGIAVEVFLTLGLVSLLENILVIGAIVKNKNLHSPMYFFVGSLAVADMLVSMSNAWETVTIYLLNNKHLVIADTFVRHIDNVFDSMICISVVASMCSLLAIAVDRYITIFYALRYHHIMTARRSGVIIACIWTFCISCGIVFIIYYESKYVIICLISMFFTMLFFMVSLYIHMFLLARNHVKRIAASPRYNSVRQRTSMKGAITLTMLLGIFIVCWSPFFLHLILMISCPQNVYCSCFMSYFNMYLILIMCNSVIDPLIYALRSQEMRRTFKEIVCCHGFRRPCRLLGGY

mMC3R [1] = target: T1, mMC3R (Mus musculus, UniProt P33033); assay: Antagonist Schild analysis against agonist MTII at mMC3R; settings: for mMC3R pharmacology class printed in Fold Diff column (Ant, SA): Ant = antagonist, SA = some stimulatory activity at 100 µM
T1 sequence (P33033 whole entry): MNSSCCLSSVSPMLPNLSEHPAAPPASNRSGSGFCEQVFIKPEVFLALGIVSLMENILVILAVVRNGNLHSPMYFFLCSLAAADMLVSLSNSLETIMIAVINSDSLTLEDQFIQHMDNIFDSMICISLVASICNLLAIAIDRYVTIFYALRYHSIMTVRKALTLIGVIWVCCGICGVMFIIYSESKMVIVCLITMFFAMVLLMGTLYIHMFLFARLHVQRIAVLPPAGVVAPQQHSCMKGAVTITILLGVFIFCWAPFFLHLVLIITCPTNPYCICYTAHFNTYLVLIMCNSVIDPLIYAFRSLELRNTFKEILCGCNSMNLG

mMC3R [2] = target: T1, mMC3R; assay: cell-based
mMC1R = mMC1R (Mus musculus, UniProt Q01727); assay: CRE/β-galactosidase reporter gene bioassay, agonist activity at mMC1R; settings: for mMC1R Fold Diff: fold difference in EC50 vs peptide 1, negative prefix = more potent than 1; for EC50: mMC1R EC50, agonist, HEK-293 cells stably expressing receptor, ±SEM; for mMC1R pharmacology in words: comparisons are to reference peptide 1
Sequence of mMC1R (Q01727 whole entry): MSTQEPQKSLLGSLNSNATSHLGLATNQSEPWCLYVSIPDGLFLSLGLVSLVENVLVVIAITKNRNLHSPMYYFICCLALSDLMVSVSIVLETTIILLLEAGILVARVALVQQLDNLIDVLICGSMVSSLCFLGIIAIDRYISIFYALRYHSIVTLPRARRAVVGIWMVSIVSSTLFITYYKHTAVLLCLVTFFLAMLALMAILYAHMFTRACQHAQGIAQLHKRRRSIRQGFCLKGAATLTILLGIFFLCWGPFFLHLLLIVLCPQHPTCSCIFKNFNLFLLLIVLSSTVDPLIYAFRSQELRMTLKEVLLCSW

mMC4R [3] = target: T2, mMC4R (Mus musculus, UniProt P56450); assay: Antagonist Schild analysis against agonist MTII at mMC4R; settings: for mMC4R pharmacology class printed in Fold Diff. column (Ant, SA): Ant = antagonist, SA = some stimulatory activity at 100 µM
T2 sequence (P56450 whole entry): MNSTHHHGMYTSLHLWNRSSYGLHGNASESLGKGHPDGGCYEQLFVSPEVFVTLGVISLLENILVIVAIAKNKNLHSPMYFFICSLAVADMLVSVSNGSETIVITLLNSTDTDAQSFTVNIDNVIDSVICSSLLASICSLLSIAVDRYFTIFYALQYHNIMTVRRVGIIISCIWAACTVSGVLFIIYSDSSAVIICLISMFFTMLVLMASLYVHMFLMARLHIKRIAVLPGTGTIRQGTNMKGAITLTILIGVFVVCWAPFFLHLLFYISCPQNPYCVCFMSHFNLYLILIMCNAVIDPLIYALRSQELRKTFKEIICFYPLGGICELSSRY

mMC4R [4] = target: T2, mMC4R; assay: CRE/β-galactosidase reporter gene bioassay, agonist activity at mMC4R; settings: ligand at 100 μM, compared to maximal response generated by α-MSH
[5] = ligand at 100 μM, compared to maximal response generated by α-MSH

Structure (SMILES)	EC50 (mMC5R) [nM]	mMC5R pharmacology in words (mMC5R)	Kb (mMC3R [1]) [nM]	mMC3R pharmacology class printed in Fold Diff column (Ant, SA) (mMC3R [1])	mMC3R relative percentage of stimulation at 100 μM (mMC3R [2]; 100000.0) [%−65%]	mMC3R relative percentage of stimulation at 100 μM (mMC3R [2]; [5]) [%]	mMC1R Fold Diff (mMC1R)	EC50 (mMC1R)	Kb (mMC4R [3]) [nM]	Ki (mMC4R [3]) [nM]	mMC4R pharmacology class printed in Fold Diff. column (Ant, SA) (mMC4R [3])	mMC4R relative percentage of stimulation at 100 μM (mMC4R [4]) [%]	mMC5R Fold Diff. (mMC5R)	mMC5R fold less potent than peptide 1 (mMC5R)	mMC1R pharmacology in words (mMC1R)	mMC1R fold difference in EC50, more potent than reference peptide 1 (mMC1R; more potent agonist than 1) [fold]
CCCCCCCC(=O)N[C@@H](Cc1c[nH]cn1)C(=O)N[C@H](Cc1ccc(I)cc1)C(=O)N[C@@H](CCCNC(=N)N)C(=O)N[C@@H](Cc1c[nH]c2ccccc12)C(N)=O [Peptide 6, Octanoyl-His-(pI)DPhe-Arg-Trp-NH2]	5.8 ± 1.7	equipotent	5.01	Ant	50	50	−22	6.3 ± 2.4 nM	2.51	~3	Ant	30				
CC(=O)N[C@@H](Cc1cccnc1)C(=O)N[C@H](Cc1ccc(I)cc1)C(=O)N[C@@H](CCCNC(=N)N)C(=O)N[C@@H](Cc1c[nH]c2ccccc12)C(N)=O [Peptide 12, Ac-3PAL-(pI)DPhe-Arg-Trp-NH2] (Ac-[3Pal][dPhe(4-I)]RW-NH2)	18000 ± 3000		100	Ant			34	4800 ± 1400 nM	5.01		SA Ant	35	3340	3300 fold		
CC(=O)N[C@@H](Cc1cccs1)C(=O)N[C@H](Cc1ccc(I)cc1)C(=O)N[C@@H](CCCNC(=N)N)C(=O)N[C@@H](Cc1c[nH]c2ccccc12)C(N)=O [Peptide 14, Ac-2Thi-(pI)DPhe-Arg-Trp-NH2] (Ac-[2Thi][dPhe(4-I)]RW-NH2)	71 ± 30		39.8	SA Ant		40		490 ± 150 nM	3.98		SA Ant	55	14	11- to 25 fold	equipotent	
CC(=O)N[C@@H](Cc1ccccc1)C(=O)N[C@H](Cc1ccc(I)cc1)C(=O)N[C@@H](CCCNC(=N)N)C(=O)N[C@@H](Cc1c[nH]c2ccccc12)C(N)=O [Peptide 15, Ac-Phe-(pI)DPhe-Arg-Trp-NH2] (Ac-F[dPhe(4-I)]RW-NH2)	140 ± 30		126	SA Ant		20	6	820 ± 320 nM	20		SA Ant	30	25	11- to 25 fold		
CC(=O)N[C@@H](Cc1c[nH]c2ccccc12)C(=O)N[C@H](Cc1ccc(-c2ccccc2)cc1)C(=O)N[C@@H](CCCNC(=N)N)C(=O)N[C@@H](Cc1c[nH]c2ccccc12)C(N)=O [Peptide 18, Ac-Trp-DBip-Arg-Trp-NH2] (Ac-W[dBip]RW-NH2)	1800 ± 1300	non-selective mMC1R and mMC5R micromolar agonist profile	200	Ant			13	1800 ± 1000 nM	100		SA Ant	45	340		non-selective mMC1R and mMC5R micromolar agonist profile	
CC(=O)N[C@@H](Cc1c[nH]cn1)C(=O)N[C@H](Cc1ccc(I)cc1)C(=O)N[C@@H](CCCNC(=N)N)C(=O)N[C@@H](Cc1ccc(-c2ccccc2)cc1)C(N)=O [Peptide 29, Ac-His-(pI)DPhe-Arg-Bip-NH2] (Ac-H[dPhe(4-I)]R[Bip]-NH2)	12.4 ± 2	equipotent agonists; also recorded: very potent nanomolar agonist activity	200	SA Ant		35		47 ± 9 nM	39.8		SA Ant	30				
CC(=O)N[C@@H](Cc1c[nH]cn1)C(=O)N[C@H](Cc1ccc(I)cc1)C(=O)N[C@@H](CCCNC(=N)N)C(=O)N[C@@H](Cc1csc2ccccc12)C(N)=O [Peptide 30, Ac-His-(pI)DPhe-Arg-3Bal-NH2] (Ac-H[dPhe(4-I)]R[Bta]-NH2)	3.2 ± 0.7	equipotent agonists; also recorded: very potent nanomolar agonist activity	39.8	SA Ant		25		45 ± 14 nM	10		SA Ant	50				
CC(=O)N[C@@H](Cc1c[nH]cn1)C(=O)N[C@H](Cc1ccc(-c2ccccc2)cc1)C(=O)N[C@@H](CCCNC(=N)N)C(=O)N[C@@H](Cc1ccc(-c2ccccc2)cc1)C(N)=O [Peptide 33, Ac-His-DBip-Arg-Bip-NH2] (Ac-H[dBip]R[Bip]-NH2)	31.2 ± 4.7	less potent	501	Ant			−9	15.8 ± 6.1 nM	158		Ant	30	6		more potent	
CC(=O)N[C@@H](Cc1c[nH]cn1)C(=O)N[C@H](Cc1ccc(-c2ccccc2)cc1)C(=O)N[C@@H](CCCNC(=N)N)C(=O)N[C@@H](Cc1csc2ccccc12)C(N)=O [Peptide 34, Ac-His-DBip-Arg-3Bal-NH2] (Ac-H[dBip]R[Bta]-NH2)	6.9 ± 0.2	equipotent agonists	316	SA Ant		55	−16	9 nM and 8.9 nM	20		SA Ant	65			more potent	16
CC(=O)N[C@@H](Cc1c[nH]cn1)C(=O)N[C@H](Cc1ccc(-c2ccccc2)cc1)C(=O)N[C@@H](CCCNC(=N)N)C(=O)N[C@H](Cc1ccc(-c2ccccc2)cc1)C(N)=O [Peptide 35, Ac-His-DBip-Arg-DBip-NH2] (Ac-H[dBip]R[dBip]-NH2)	42 ± 7	less potent	200	Ant				90 ± 20 nM	158		SA Ant	23	8		within 3-fold experimental error	
